# Measured values reported in patent publication EP2813571A1, “Method for the treatment of lung cancer” (Institut d'Investigació Biomèdica de Bellvitge (IDIBELL), priority 2013, dated 2014).
# What was measured:
# DMS-273 = assay: MTT cell viability assay; type: cell-based, human; settings: scramble shRNA DMS-273 cells compared with SETDB1-depleted clones; triplicate
# Procedure: (§1) • Figure 1. Determination of SETDB1 gene amplification and its association with RNA and protein overexpression in lung cancer cell lines. (A) Assessment of SETDB1 copy number by quantitative genomic PCR. Amplification frequency of SETDB1 (evaluated with SYBR Green) was calculated by the standard curve method using the 7900HT SDS program. To define an internal control gene chromosome 1p36.23 was chosen because it is the least aneuploid region among our cell lines (PEX19 gene). DNA from normal lung was used as the reference standard. Results are reported as n-fold copy number increase relative to the PEX19 gene. […] The internal control gene was ACTB (beta-actin). • Figure 2. Growth-promoting effects of SETDB1 in lung cancer. (A) Stable down-regulation of the SETDB1 gene by short hairpins using two different target sequences for DMS-273 (clones A30/A31 and clone B32-63) and NCI-H1437 (clones A56-B and B46-9). […] Tumor volume was monitored over time and the tumor was excised and weighed at 30 days. […] (A) Effect of SETDB1 on the invasion potential of A549 cells determined by the matrigel invasion assay. […] Invasive cells were counted using ImageJ 1.45s (Wayne Rasband, National Institutes of Health, USA) and the percentage of invasive cells was represented. Results are the mean of at least three experiments by duplicate and the significance was determined using ANOVA-test. *p<0.05. […]
# CL1-5 = settings: Lin and Wang 2007; cited from earlier work
# NCI-H1437 = assay: MTT cell viability assay; type: cell-based; settings: Homo sapiens, SETDB1 amplified cell line NCI-H1437
# Procedure: as §1
# NCI-H1299 = assay: MTT cell viability assay; type: cell-based; settings: Homo sapiens, SETDB1 non-amplified cell line NCI-H1299
# Procedure: as §1
# DMS-114 = assay: MTT cell viability assay; type: cell-based; settings: Homo sapiens, SETDB1 non-amplified cell line DMS-114
# Description: (§2) The observation that the presence of the SETDB1 gene amplification with associated overexpression was critical for the tumorigenesis of these lung cancer cells prompted the inventors to examine whether drugs targeting this pathway might find a therapeutic "niche" for their use in the described subset of cases with extra copies of this gene. No highly specific inhibitor for SETDB1 has been described in the publicly available literature, but one agent-mithramycin- is a clinically approved anti-tumor antibiotic that binds to DNA by interacting with the minor groove and displacing transcriptional activators that bind to GC-rich binding sites. Thus, the inventors tested whether a putative growth-inhibitory effect of this drug in lung cancer cells was dependent on SETDB1 expression. First, western blot analyses for the SETDB1 protein in the SETDB1 amplified lung cancer cell lines DMS-273, NCI-H1437 and NCI-H1395 upon the use of the drug were developed. […] Experiments for each clone were performed in triplicate. Furthermore, we extended the cell viability experiments, using the MTT assay, to the other two SETDB1 amplified lung cancer cell lines (NCI-H1437 and NCI-H1395) and to three SETDB1 non-amplified lung cancer cell lines (DMS-114, A549 and NCI-H1299). […] Thus, the presence of SETDB1 gene amplification could "mark" lung cancer cells that are more sensitive to the inhibition of cell viability associated with the use of mithramycin.
# NCI-H1395 = assay: MTT cell viability assay; type: cell-based; settings: Homo sapiens, SETDB1 amplified cell line NCI-H1395
# Description: as §2
# A549 = assay: MTT cell viability assay; type: cell-based; settings: Homo sapiens, SETDB1 non-amplified cell line A549
# Description: as §2
# H647 = settings: Lin and Wang 2007; cited from earlier work
# CL1-5 cells = settings: Lin and Wang 2007; cited from earlier work
# SETDB1 protein = assay: Western blot for SETDB1 protein after drug treatment of SETDB1 amplified lung cancer cell lines; type: cell-based, human; settings: DMS-273, NCI-H1437 and NCI-H1395
# Procedure: as §1
compound,measurement,setting,value
"CO[C@H](C(=O)[C@@H](O)[C@@H](C)O)[C@@H]1Cc2cc3cc(O[C@H]4C[C@@H](O[C@H]5C[C@@H](O)[C@H](O)[C@@H](C)O5)[C@H](O)[C@@H](C)O4)c(C)c(O)c3c(O)c2C(=O)[C@H]1O[C@H]1C[C@@H](O[C@H]2C[C@@H](O[C@H]3C[C@](C)(O)[C@H](O)[C@@H](C)O3)[C@H](O)[C@@H](C)O2)[C@H](O)[C@@H](C)O1 [mithramycin, (1S)-5-deoxy-1-C-((2S,3S)-7-{[2,6-dideoxy-3-O-(2,6-dideoxy-β-D-arabino-hexopyranosyl)-β-D-arabino-hexopyranosyl]oxy}-3-{[2,6-dideoxy-3-C-methyl-β-D-ribo-hexopyranosyl-(1→3)-2,6-dideoxy-β-D-arabino-hexopyranosyl-(1→3)-2,6-dideoxy-β-D-arabino-hexopyranosyl]oxy}-5,10-dihydroxy-6-methyl-4-oxo-1,2,3,4-tetrahydroanthracen-2-yl)-1-O-methyl-D-xylulose]",sensitivity to the growth-inhibitory effect,DMS-273,significantly more sensitive
same,growth of human lung cancer cell lines,CL1-5,inhibiting the growth
same,EC50,NCI-H1437,0.0136 µM
same,EC50,NCI-H1299,0.032 µM
same,EC50,DMS-114,0.348 µM
same,EC50,NCI-H1395,0.0147 µM
same,EC50,A549,0.122 µM
same,growth of human lung cancer cell lines,H647,inhibiting the growth
same,invasion phenotypes,CL1-5 cells,inhibiting the invasion phenotypes
same,SETDB1 expression,SETDB1 protein,inhibit SETDB1 expression
